We go through 12 molecules from US7985753B2, “Substituted pyrazolo[1,5-A]pyrimidines as metabotropic glutamate receptor modulators” (MERZ PHARMA GmbH & Co. KGaA, priority 2006, dated 2011).

One experiment deals with metabotropic glutamate receptor (mGluR5) (Homo sapiens, UniProt P41594). The experiment can be described thus: Activity as mGluR5 modulator, test not specified.
metabotropic glutamate receptor (mGluR5), sequence (P41594 21-1212): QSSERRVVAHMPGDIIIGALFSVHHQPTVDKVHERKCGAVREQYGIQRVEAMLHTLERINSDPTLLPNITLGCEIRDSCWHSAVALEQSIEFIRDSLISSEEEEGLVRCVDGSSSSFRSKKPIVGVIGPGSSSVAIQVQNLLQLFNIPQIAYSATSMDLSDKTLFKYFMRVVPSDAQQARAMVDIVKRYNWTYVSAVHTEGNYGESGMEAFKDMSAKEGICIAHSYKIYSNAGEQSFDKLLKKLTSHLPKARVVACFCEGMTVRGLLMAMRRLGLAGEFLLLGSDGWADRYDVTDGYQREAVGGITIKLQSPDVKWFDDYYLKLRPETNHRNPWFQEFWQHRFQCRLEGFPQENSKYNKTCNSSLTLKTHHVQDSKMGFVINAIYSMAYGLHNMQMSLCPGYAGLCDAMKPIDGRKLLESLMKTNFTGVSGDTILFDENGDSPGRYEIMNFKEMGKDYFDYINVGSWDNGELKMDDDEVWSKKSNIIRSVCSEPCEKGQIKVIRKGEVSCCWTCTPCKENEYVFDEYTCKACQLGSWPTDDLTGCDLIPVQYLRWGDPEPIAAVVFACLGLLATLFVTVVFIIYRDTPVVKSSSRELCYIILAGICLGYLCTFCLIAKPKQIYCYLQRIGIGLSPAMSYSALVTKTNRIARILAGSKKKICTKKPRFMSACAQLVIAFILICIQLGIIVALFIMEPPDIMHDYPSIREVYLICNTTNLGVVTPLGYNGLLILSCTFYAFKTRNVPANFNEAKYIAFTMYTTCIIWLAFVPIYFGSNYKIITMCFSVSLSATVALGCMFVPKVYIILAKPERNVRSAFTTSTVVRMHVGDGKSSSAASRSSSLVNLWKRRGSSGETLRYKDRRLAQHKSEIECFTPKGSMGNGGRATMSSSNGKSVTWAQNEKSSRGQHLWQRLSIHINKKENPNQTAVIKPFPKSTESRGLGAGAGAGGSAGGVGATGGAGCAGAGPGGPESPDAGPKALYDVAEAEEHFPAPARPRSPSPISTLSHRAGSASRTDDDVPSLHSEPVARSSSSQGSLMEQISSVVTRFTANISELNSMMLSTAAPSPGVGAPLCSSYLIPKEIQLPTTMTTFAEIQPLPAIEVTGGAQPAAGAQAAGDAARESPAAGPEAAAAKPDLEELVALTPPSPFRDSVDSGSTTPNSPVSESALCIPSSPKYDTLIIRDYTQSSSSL
Conditions: not given
`O=C(c1cc2ncc(Br)cn2n1)N1CCCCC1` [Example B308, (6-Bromopyrazolo[1,5-a]pyrimidin-2-yl)-piperidin-1-yl-methanone]: the “activity as metabotropic glutamate receptor (mGluR5) modulator” value is recorded as “no particular activity”.
For the molecule `O=C(c1cc2ncc(Br)cn2n1)N1CCOCC1` [Example B310, (6-Bromopyrazolo[1,5-a]pyrimidin-2-yl)-morpholin-4-yl-methanone], the “activity as metabotropic glutamate receptor (mGluR5) modulator” value is listed as “no particular activity”.

The target of another experiment is T1, transmembrane allosteric modulatory sites of mGluR5 receptors in cortical membranes (Rattus norvegicus, UniProt P31424).
T1 construct: from tissue; host or cells: rat brain cortex membranes
T1 sequence (P31424 21-1203): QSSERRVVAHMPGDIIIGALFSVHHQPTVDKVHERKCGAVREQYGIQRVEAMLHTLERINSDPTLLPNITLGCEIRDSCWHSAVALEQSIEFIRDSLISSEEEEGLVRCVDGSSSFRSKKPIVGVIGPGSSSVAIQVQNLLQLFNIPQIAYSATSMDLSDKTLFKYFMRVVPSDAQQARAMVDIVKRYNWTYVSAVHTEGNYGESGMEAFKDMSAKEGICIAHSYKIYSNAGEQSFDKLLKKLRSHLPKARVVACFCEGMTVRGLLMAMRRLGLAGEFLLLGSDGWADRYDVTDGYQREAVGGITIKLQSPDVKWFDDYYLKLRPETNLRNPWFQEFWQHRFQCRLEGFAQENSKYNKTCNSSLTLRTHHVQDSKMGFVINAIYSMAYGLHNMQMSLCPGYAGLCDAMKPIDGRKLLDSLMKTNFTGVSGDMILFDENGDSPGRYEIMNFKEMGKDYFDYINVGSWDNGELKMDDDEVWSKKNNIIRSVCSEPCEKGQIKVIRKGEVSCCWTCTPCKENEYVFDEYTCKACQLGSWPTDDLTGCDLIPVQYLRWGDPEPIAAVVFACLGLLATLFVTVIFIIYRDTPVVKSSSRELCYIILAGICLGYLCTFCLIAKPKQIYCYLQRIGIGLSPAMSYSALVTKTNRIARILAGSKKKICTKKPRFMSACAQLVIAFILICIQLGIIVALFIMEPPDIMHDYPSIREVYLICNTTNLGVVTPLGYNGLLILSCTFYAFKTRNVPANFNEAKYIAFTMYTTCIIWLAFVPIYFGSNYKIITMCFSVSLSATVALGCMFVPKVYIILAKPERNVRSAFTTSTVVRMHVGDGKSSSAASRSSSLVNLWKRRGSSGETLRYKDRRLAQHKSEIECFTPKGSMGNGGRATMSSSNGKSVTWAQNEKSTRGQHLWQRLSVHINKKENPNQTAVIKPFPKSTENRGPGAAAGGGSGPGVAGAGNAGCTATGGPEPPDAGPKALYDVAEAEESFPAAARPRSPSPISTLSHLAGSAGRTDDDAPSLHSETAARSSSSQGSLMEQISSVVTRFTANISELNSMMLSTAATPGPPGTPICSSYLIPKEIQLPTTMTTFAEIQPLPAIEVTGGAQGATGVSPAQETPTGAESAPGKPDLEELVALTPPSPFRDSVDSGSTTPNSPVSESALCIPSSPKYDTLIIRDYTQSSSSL
Description: [^3H]-MPEP binding assay in rat cortical membranes. The settings on record: read-out: mGluR5_M_MPEP_r_CTX_IC50. As to the method: Male Sprague-Dawley rats (200-250 g) are decapitated and their brains are removed rapidly. The cortex is dissected and homogenized in 20 volumes of ice-cold 0.32 M sucrose using a glass-Teflon homogenizer. The homogenate is centrifuged at 1000×g for 10 minutes. The pellet is discarded and the supernatant centrifuged at 20,000×g for 20 minutes. The resulting pellet is re-suspended in 20 volumes of distilled water and centrifuged for 20 minutes at 8000×g. Then the supernatant and the buffy coat are centrifuged at 48,000×g for 20 minutes in the presence of 50 mM Tris-HCl, pH 8.0. The pellet is then re-suspended and centrifuged two to three more times at 48,000×g for 20 minutes in the presence of 50 mM Tris-HCl, pH 8.0. All centrifugation steps are carried out at 4° C. After resuspension in 5 volumes of 50 mM Tris-HCl, pH 8.0 the membrane suspension is frozen rapidly at −80° C.
On the day of assay the membranes are thawed and washed four times by resuspension in 50 mM Tris-HCl, pH 8.0 and centrifugation at 48,000×g for 20 minutes and finally re-suspended in 50 mM Tris-HCl, pH 7.4. The amount of protein in the final membrane preparation (500-700 μg/ml) is determined according to the method of Lowry (Lowry O. H. et al. 1951. J. Biol. Chem. 193, 256-275).
Alternatively, assays are performed with [^3H]-MMPEP (2-(3-methoxyphenylethynyl)-6-methylpyridine hydrochloride) as radioligand. The incubations are continued at room temperature for 60 minutes (equilibrium is achieved under the conditions used). […] Incubations are terminated using a Millipore filter system. The samples are rinsed twice with 4 ml of ice-cold assay buffer over glass fibre filters (Schleicher & Schuell, Germany) under a constant vacuum. Following separation and rinse, the filters are placed into scintillation liquid (5 ml Ultima Gold, Perkin Elmer, Germany) and radioactivity retained on the filters is determined with a conventional liquid scintillation counter (Canberra Packard, Germany).
As to `COc1cc2c(cc1O)CCN(C(=O)c1cc3ncc(Br)cn3n1)C2C` (stereo not drawn) [drawing 453, 2-[(6-bromopyrazolo[1,5-a]pyrimidin-2-yl)carbonyl]-7-methoxy-1-methyl-1,2,3,4-tetrahydro-6-isoquinolinol], the IC50 came out at 60 nM.
On to `CC1c2cc(F)ccc2CCN1C(=O)c1cc2ncc(Br)cn2n1` (stereo not drawn) [drawing 454, (6-Bromo-pyrazolo[1,5-a]pyrimidin-2-yl)-(7-fluoro-1-methyl-3,4-dihydro-1H-isoquinolin-2-yl)-methanone], for which the IC50 was found to be 30 nM.
Same read-out and setting: next, `CC1c2cccc(F)c2CCN1C(=O)c1cc2ncc(Br)cn2n1` (stereo not drawn) [drawing 455, (6-Bromo-pyrazolo[1,5-a]pyrimidin-2-yl)-(5-fluoro-1-methyl-3,4-dihydro-1H-isoquinolin-2-yl)-methanone]: 10 nM; `CC1c2ccc(F)cc2CCN1C(=O)c1cc2ncc(Cl)cn2n1` (stereo not drawn) [drawing 456, (6-Chloro-pyrazolo[1,5-a]pyrimidin-2-yl)-(6-fluoro-1-methyl-3,4-dihydro-1H-isoquinolin-2-yl)-methanone]: 40 nM; `CC1CN(C(=O)c2cc3ncc(Cl)cn3n2)C(C)c2ccccc21` (stereo not drawn) [drawing 457, (6-Chloro-pyrazolo[1,5-a]pyrimidin-2-yl)-(1,4-dimethyl-3,4-dihydro-1H-isoquinolin-2-yl)-methanone]: 118 nM.
On the same count and under the same terms, as for `CC1CN(C(=O)c2cc3ncc(Br)cn3n2)C(C)c2ccccc21` (stereo not drawn) [drawing 458, (6-Bromo-pyrazolo[1,5-a]pyrimidin-2-yl)-(1,4-dimethyl-3,4-dihydro-1H-isoquinolin-2-yl)-methanone], the figure is 91 nM; as for `COc1ccc2c(c1)CCN(C(=O)c1cc3ncc(Br)cn3n1)C2C` (stereo not drawn) [drawing 459, (6-Bromo-pyrazolo[1,5-a]pyrimidin-2-yl)-(6-methoxy-1-methyl-3,4-dihydro-1H-isoquinolin-2-yl)-methanone], 20 nM.
On to `COc1ccc2c(c1)CCN(C(=O)c1cc3ncc(Cl)cn3n1)C2C` (stereo not drawn) [drawing 460, (6-Chloro-pyrazolo[1,5-a]pyrimidin-2-yl)-(6-methoxy-1-methyl-3,4-dihydro-1H-isoquinolin-2-yl)-methanone], for which the IC50 is 27 nM.
In the case of `CC1c2cccc(Br)c2CCN1C(=O)c1cc2ncc(Cl)cn2n1` (stereo not drawn) [drawing 461, (5-Bromo-1-methyl-3,4-dihydro-1H-isoquinolin-2-yl)-(6-chloro-pyrazolo[1,5-a]pyrimidin-2-yl)-methanone], the IC50 came to 21 nM.
Take `O=C(c1cc2ncc(Cl)cn2n1)N1CCc2ncc(Br)cc2C1` [drawing 462, (3-Bromo-7,8-dihydro-5H-[1,6]naphthyridin-6-yl)-(6-chloro-pyrazolo[1,5-a]pyrimidin-2-yl)-methanone]: the IC50 came out at 107 nM.
